Source: patent publication US5719143A, “Polysubstituted 3-acylamino-5-phenyl-1, 4-benzodiazepin-2-one derivatives, process for their preparation and the pharmaceutical compositions containing them” (Sanofi, priority 1994, dated 1998)

Columns and labels:
biliary emptying = test: in vivo biliary emptying model in fasted mice; conditions: Mus musculus, po, 1 h, administered orally one hour before the sacrifice, bile vesicle weight
Protocol: The compounds are administered orally one hour before the sacrifice. The bile vesicle is removed and then weighed and the results, expressed in mg/kg of body weight, reveal for the compound of Example 10, for example, an ED50 of 0.3 mg/kg.

CCKA receptors = test: in vitro affinity measurement, CCKA receptors; type: binding
Protocol: These compounds have formed the subject of in vitro affinity measurement studies concerning the CCKA receptors.
(§1) This affinity is between 0.5 and 100 nM with a selectivity for the CCKA receptors over the CCKB receptors which may reach a factor of 10,000 for the compound of Example 1, for example.

CCKB receptor = test: in vitro affinity measurement, CCKB receptor; type: binding
Protocol: as §1

Row | Structure (SMILES) | affinity for the CCKB receptor compared with that for the CCKA receptor (CCKB receptor) | further results
1 | COc1cc(C)cc(OC)c1C1=NC(NC(=O)c2cc3ccccc3[nH]2)C(=O)N(C)c2ccccc21 (single isomer, unassigned; (+)) [Example 10, (+)-N-[2,3-dihydro-5-(2,6-dimethoxy-4-methylphenyl)-1-methyl-2-oxo-1H-1,4-benzodiazepin-3-yl]-1H-indole-2-carboxamide] | – | ED50 (biliary emptying): 0.3 mg/kg
2 | COc1cc(C)cc(OC)c1C1=NC(NC(=O)c2cc3ccccc3[nH]2)C(=O)N(C)c2ccccc21 (stereo not shown) [Example 1, N-[2,3-dihydro-5-(2,6-dimethoxy-4-methylphenyl)-1-methyl-2-oxo-1H-1,4-benzodiazepin-3-yl]-1H-2-indolecarboxamide] | – | selectivity for the CCKA receptors over the CCKB receptors (factor) (CCKA receptors): 10,000
3 | COc1cc(OC)c(C2=NC(NC(=O)Nc3cccc(C)c3)C(=O)N(C)c3ccccc32)c(OC)c1 (stereo not shown) [Example 7, 1,3-dihydro-1-methyl-3-(3-methylphenylureido)-5-(2,4,6-trimethoxyphenyl)-1,4-benzodiazepin-2-one] | identical to or greater than that obtained for the CCKA receptor | –
4 | COc1cc(C)cc(OC)c1C1=NC(NC(=O)Nc2cccc(C)c2)C(=O)N(C)c2ccccc21 (stereo not shown) [Example 6, 1,3-dihydro-5-(2,6-dimethoxy-4-methylphenyl)-1-methyl-3-(3-methylphenylureido)-1,4-benzodiazepin-2-one] | identical to or greater than that obtained for the CCKA receptor | –
